From patent publication US11414438B2, “Silylethynyl hetaryl compounds as nitrification inhibitors” (BASF SE, priority 2018, dated 2022)

Experiments:
nitrification = assay: inhibition of nitrification in soil incubation (ammonium and nitrate content after 14 days); conditions: 20° C., 10 mg ammoniumsulfate-N; for NI @ 0.1%: compound at 0.1% of nitrogen N; for NI @ 0.3%: compound at 0.3% of nitrogen N; for NI @ 3%: compound at 3% of nitrogen N; for NI @ 1%: compound at 1% of nitrogen N
Experimental: The compounds of the invention have been tested as follows in terms of the inhibition of nitrification:
100 g soil is filled into 500 ml plastic bottles (e.g. soil sampled from the field) and is moistened to 50% water holding capacity. The soil is incubated at 20° C. for two weeks to activate the microbial biomass. 1 ml test solution, containing the compound in the appropriate concentration (usually 0.3 or 1% of nitrogen N), or DMSO and 10 mg nitrogen in the form of ammoniumsulfate-N is added to the soil and everything mixed well. Bottles are capped but loosely to allow air exchange. The bottles are then incubated at 20° C. for 0 and 14 days.
For analysis 300 ml of a 1% K2SO4-solution is added to the bottle containing the soil and shaken for 2 hours in a horizontal shaker at 150 rpm. Then the whole solution is filtered through a filter (Macherey-Nagel Filter MN 807¼). Ammonium and nitrate content is then analyzed in the filtrate in an autoanalyzer at 550 nm (Merck, AA11).
The inhibition (NI @ a specified concentration) is calculated as follows: […]

[1] = volatility: weight loss from open vials in the hood; assay type: physicochemical; conditions: 251 mg in 10 ml vials open in the hood
Experimental: The compounds of the invention have been tested in terms of their volatility. 251 mg of the compounds were provided in 10 ml vials open in the hood and tested in comparison to 5-chloro-2-ethynyl pyridine (Ref.-1). The weight loss was determined after 1 week.

| % weight loss after 1 week [1] | Compound | NI @ 0.1% (nitrification) | NI @ 0.3% (nitrification) | NI @ 3% (nitrification) | NI @ 1% (nitrification) |
| --- | --- | --- | --- | --- | --- |
|  | C[Si](C)(C)C#Cc1ccccn1 [No. 1] | 54 | 77 | 86 |  |
|  | C[SiH](C)C#Cc1ccccn1 [No. 2] |  | 82 |  | 94 |
|  | C[Si](C)(C#Cc1ccccn1)CCl.Cl [No. 3] |  | 80 |  | 91 |
|  | CC(C)(C)[Si](C)(C)C#Cc1ccccn1 [No. 4] |  | 11 |  | 28 |
|  | C[Si](C)(C#Cc1ccccn1)O[Si](C)(C)C#Cc1ccccn1 [No. 5] |  | 78 |  | 83 |
|  | C[Si](C)(C#Cc1ccccn1)O[Si](C)(C)O[Si](C)(C)C#Cc1ccccn1 [No. 6] |  | 51 |  | 75 |
|  | C[Si](C)(C#Cc1ccccn1)O[Si](C)(C)O[Si](C)(C)O[Si](C)(C)C#Cc1ccccn1 [No. 7] |  | 31 |  | 63 |
|  | C[Si](C)(C#Cc1ccccn1)C[Si](C)(C)C#Cc1ccccn1 [No. 8] |  | 16 |  | 43 |
|  | C[Si](C)(C#Cc1ccccn1)c1ccccc1 [No. 9] |  | 83 |  | 80 |
| 8% | C[Si](C)(C)C#Cc1ccc(Cl)cn1 [No. 10] | 61 | 75 | 85 |  |
|  | Cc1ccc(C#C[Si](C)(C)C)nc1 [No. 11] |  | 63 |  | 77 |
| 24% | C[Si](C)(C)C#Cc1cnccn1 [No. 12] | 71 | 98 |  |  |
| 53% | C#Cc1ccc(Cl)cn1 [Ref.-1, 5-chloro-2-ethynyl pyridine, reference compound] |  |  |  |  |
